What was measured:
β-glucuronidase [1] = target: T1, β-glucuronidase (Escherichia coli, UniProt P05804); assay: PNPG hydrolysis assay at […] nm with commercial enzyme; positive control; assay type: biochemical
T1 construct: gene uidA

β-glucuronidase [2] = target: T1, β-glucuronidase; assay: PNPG hydrolysis assay at […] nm with commercial enzyme; Lineweaver-Burk and secondary plots (IC50 […]); assay type: biochemical

T1 sequence (P05804 whole entry): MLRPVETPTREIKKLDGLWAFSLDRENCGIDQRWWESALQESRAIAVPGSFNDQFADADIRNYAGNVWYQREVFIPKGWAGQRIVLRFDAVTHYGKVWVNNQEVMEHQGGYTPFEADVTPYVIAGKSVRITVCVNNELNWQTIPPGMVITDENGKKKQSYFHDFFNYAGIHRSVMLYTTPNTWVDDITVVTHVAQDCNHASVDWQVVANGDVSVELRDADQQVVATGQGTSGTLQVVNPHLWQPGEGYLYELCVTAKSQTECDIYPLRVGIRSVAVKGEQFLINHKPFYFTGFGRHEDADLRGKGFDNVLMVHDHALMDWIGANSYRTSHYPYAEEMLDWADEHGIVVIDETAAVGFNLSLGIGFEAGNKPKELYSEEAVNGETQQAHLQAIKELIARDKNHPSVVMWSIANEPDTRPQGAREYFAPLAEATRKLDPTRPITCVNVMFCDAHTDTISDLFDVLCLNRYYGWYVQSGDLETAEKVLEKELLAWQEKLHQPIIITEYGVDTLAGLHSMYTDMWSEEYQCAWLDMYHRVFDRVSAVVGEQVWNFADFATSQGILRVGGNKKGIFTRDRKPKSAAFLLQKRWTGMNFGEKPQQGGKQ

Question: With `O=C(O)[C@@H](O)[C@H]1OC(=O)[C@H](O)[C@H]1O` [DSA, D-saccharic acid 1,4-lactone] as the molecule, how does the IC50 (β-glucuronidase [1]) read?
Answer: 19.6 ± 2.4 µM

Question: With `COc1cc(/C=C/C(=O)O[C@H]2[C@H](O)[C@@H](CO)O[C@@]2(CO)O[C@H]2O[C@H](CO)[C@@H](OC(=O)c3ccccc3)[C@H](O)[C@H]2O)cc(OC)c1OC` [compound 3, 4-O-Benzoyl-3′-O-(O-methylsinapoyl) sucrose] as the molecule, how does the Ki (β-glucuronidase [2]) read?
Answer: 13.4 µM

Source: PMC9705844, “Inhibitory Activity of 4-O-Benzoyl-3′-O-(OMethylsinapoyl) Sucrose from Polygala tenuifolia on Escherichia coli β-Glucuronidase” (Journal of Microbiology and Biotechnology, 2021)
